Values after ≈ are worked out from the molar mass of the structure shown. Active and inactive are the calls of the source. The calls are words filed in the database; no cut-off is given here.
How the values were obtained:
[1] = system: Mycolicibacterium smegmatis; test: Antibacterial activity against Mycobacterium smegmatis DSM ATCC 700084 assessed as growth inhibition by serial dilution assay; assay type: functional, organism-based
KB 3-1 = test: Cytotoxicity in human KB 3-1 cells assessed as reduction in cell viability measured after 5 days by MTT assay; assay type: functional, cell-based; conditions: KB 3-1, 120 h
Staphylococcus aureus = test: Antibacterial activity against Staphylococcus aureus DSM 346 assessed as growth inhibition by serial dilution assay; assay type: functional
Escherichia coli [2] = test: Antibacterial activity against Escherichia coli DSM 1116 assessed as growth inhibition by serial dilution assay; assay type: functional
Bacillus subtilis = test: Antibacterial activity against Bacillus subtilis DSM 10 assessed as growth inhibition by serial dilution assay; assay type: functional
Escherichia coli [3] = test: Antibacterial activity against Escherichia coli ATCC 8739 assessed as inhibition of bacterial growth measured after 18 hrs by Alamar blue assay; assay type: functional

MIC (Escherichia coli [2]) [µM] | MIC (Bacillus subtilis) [µM] | MIC (Escherichia coli [3]) [µM] | Structure (SMILES) | Activity [1] | IC50 (KB 3-1) [nM] | MIC (Staphylococcus aureus) [µM]
– | – | – | CC12O[C@H]3C[C@@H](O1)[C@]1(C)[C@H]4CC[C@@]5(C)C(=CC(=O)[C@@H]5c5ccc(=O)oc5)[C@@H]4CC[C@@]1(C3)O2 | inactive | 1400 | 152 (≈ 66.7 µg/mL)
– | – | – | CC12O[C@H]3C[C@@H](O1)[C@]1(C)[C@H]4CC[C@]5(C)[C@@H](c6ccc(=O)oc6)[C@@H](O)C[C@]5(O)[C@@H]4CC[C@@]1(C3)O2 | inactive | 1600 | –
– | – | – | COC1=C2[C@@H]3CC[C@@]45C[C@@H]6C[C@@H](OC(C)(O6)O4)[C@]5(C)[C@H]3CC[C@]2(C)[C@@H](c2ccc(=O)oc2)C1=O | inactive | – | 142 (≈ 66.8 µg/mL)
52.4 (≈ 33.4 µg/mL) | – | – | O=C(OC[C@H]1O[C@@H](OC(=O)c2cc(O)c(O)c(O)c2)[C@H](OC(=O)c2cc(O)c(O)c(O)c2)[C@@H](O)[C@@H]1O)c1cc(O)c(O)c(O)c1 | inactive | – | –
– | 158 (≈ 66.7 µg/mL) | 36.7 (≈ 15.5 µg/mL) | O=c1c2cc(O)c(O)cc2oc2cc(O)c([C@H]3O[C@@H](CO)[C@H](O)[C@@H](O)[C@@H]3O)c(O)c12 | inactive | – | 158 (≈ 66.7 µg/mL)
– | – | – | O=C(OC[C@H]1O[C@@H](OC(=O)c2cc(O)c(O)c(O)c2)[C@H](OC(=O)c2cc(O)c(O)c(O)c2)[C@@H](OC(=O)c2cc(O)c(O)c(O)c2)[C@@H]1O)c1cc(O)c(O)c(O)c1 | inactive | – | –

— ChEMBL document CHEMBL4837212, “Cytotoxic Compounds from the Stem Bark of Two subsp. of Bersama abyssinica” (J Nat Prod, 2021)
